This is an account of results in publication PMC6736568, “Discovery of Novel Anti-cryptosporidial Activities From Natural Products by in vitro High-Throughput Phenotypic Screening” (Frontiers in Microbiology, 2019).

SMILES strings stand for the structures. Where a name gives a salt, the structure may show the parent alone. Read-outs that look alike come from different tables or passages of the source.

For series [1], the system named is Cryptosporidium parvum. Briefly: qRT-PCR assay of the growth of C. parvum in vitro in HCT-8 host cells (primary and secondary screening, EC50). The format is cell-based. Conditions: Cryptosporidium parvum, HCT-8; for inhibition at 3.3 µM: secondary screening at 3.3 uM, read-out: % Inhibition (3.3 uM). (Quantitative PCR measures a nucleic acid by following its amplification.)

The test system of series [2] is HCT-8 host cells (Hs18S).
Series [3] in a line: in vitro.
Setting [4] is: primary screening at 10 uM, read-out: Inhibition (%).
Setting [5] is: primary screening at 10 uM, treated vs control.

One may read the inhibition as the relative decrease from the control value, in per cent. On to `CC(=O)Oc1cc(OC(C)=O)c2c(c1)O[C@H](c1ccc(OC(C)=O)c(OC(C)=O)c1)[C@H](OC(C)=O)C2` [EPICATECHIN PENTAACETATE], for which, in series [1] (setting [4]), the inhibition at 10 µM was -52.5%. Further, the “Hs18S ΔCT” value in series [2] (setting [5]) is listed as -0.02. In addition, the cytotoxicity at 10 µM in series [3] was -1.3%.
With `Oc1cc(O)c2c(c1)O[C@H](c1ccc(O)c(O)c1)[C@H](O)C2` [EPICATECHIN], the inhibition at 10 µM in series [1] (setting [4]) is -0.62%. The “Hs18S ΔCT” value in series [2] (human, 41 h, 10 μM) is given as -0.09. Further, the cytotoxicity at 41 h, 10 µM in series [3] (human) was -6.3%.
As for `O=C(Oc1cc(O)cc2c1C[C@@H](OC(=O)c1cc(O)c(O)c(O)c1)[C@@H](c1cc(O)c(O)c(O)c1)O2)c1cc(O)c(O)c(O)c1` [EPIGALLOCATECHIN 3,5-DIGALLATE], in series [1] (setting [4]), the inhibition at 10 µM is -1.19%. Also, the “Hs18S ΔCT” value in series [2] (setting [5]) is given as -0.23. Also, the cytotoxicity at 10 µM in series [3] is -17.5%.
Turning to `Oc1cc(O)c2c(c1)O[C@H](c1cc(O)c(O)c(O)c1)[C@H](O)C2` [EPIGALLOCATECHIN], the inhibition at 10 µM in series [1] (setting [4]) turned out to be 7.01%. The “Hs18S ΔCT” value in series [2] (human, 41 h, 10 μM) is recorded as 0.15. Moreover, the cytotoxicity at 41 h, 10 µM in series [3] (human) was found to be 9.9%.
With `CNC[C@H](O)c1ccc(O)c(O)c1` [EPINEPHRINE BITARTRATE], in series [1], the inhibition at 10 µM is -27.1%. In addition, in series [2], the “Hs18S ΔCT” value is given as 0.04. Further, the cytotoxicity at 10 µM in series [3] is 2.6%.
Consider `C[C@@H]1C(=O)O[C@H]2[C@H]1CC[C@@]1(C)C=CC(=O)[C@@]3(C)O[C@@]213` [EPOXY (4,5alpha)-4,5-DIHYDROSANTONIN], for which the inhibition at 10 µM in series [1] (setting [4]) was 29.7%. Besides, the “Hs18S ΔCT” value in series [2] (setting [5]) is listed as -0.03. In series [3], the cytotoxicity at 10 µM was -1.8%.
For the molecule `C[C@]12CC[C@H]3C(=CCc4cc(O)ccc43)[C@@H]1CCC2=O` [EQUILIN], the inhibition at 10 µM in series [1] (setting [4]) was -53.6%. The “Hs18S ΔCT” value in series [2] (setting [5]) is recorded as -0.60. Besides, the cytotoxicity at 41 h, 10 µM in series [3] was -51.5%.
Turning to `C[C@@H](CO)NC(=O)[C@@H]1C=C2c3cccc4[nH]cc(c34)C[C@H]2N(C)C1` [ERGONOVINE MALEATE], in series [1] (setting [4]), the inhibition at 10 µM was 2.56%. In addition, the “Hs18S ΔCT” value in series [2] (setting [5]) was found to be 0.23. In addition, the cytotoxicity at 10 µM in series [3] amounted to 14.5%.
Turning to `CC(C)[C@@H](C)/C=C/[C@@H](C)[C@H]1CC[C@H]2C3=CC=C4C[C@@H](O)CC[C@]4(C)[C@H]3CC[C@]12C` [ERGOSTEROL], the inhibition at 10 µM in series [1] (setting [4]) is -29.6%. Besides, the “Hs18S ΔCT” value in series [2] (setting [5]) is reported as -0.03. In series [3] (human), the cytotoxicity at 41 h, 10 µM is -1.9%.
For the molecule `CC[C@H]1OC(=O)[C@H](C)[C@@H](O[C@H]2C[C@@](C)(OC)[C@@H](O)[C@H](C)O2)[C@H](C)[C@@H](O[C@@H]2O[C@H](C)C[C@H](N(C)C)[C@H]2O)[C@](C)(O)C[C@@H](C)C(=O)[C@H](C)[C@@H](O)[C@]1(C)O` [ERYTHROMYCIN], the inhibition at 10 µM in series [1] (setting [4]) was found to be 94.6%. For the same molecule, the inhibition at 3.3 µM in series [1] is -13%. Further, in series [2] (human, 41 h, 10 μM), the “Hs18S ΔCT” value stood at 0.62. Further, the cytotoxicity at 41 h, 10 µM in series [3] (human) turned out to be 35%.
Regarding `O=c1ccc2cc(O)c(O)cc2o1` [ESCULETIN], the inhibition at 10 µM in series [1] (setting [4]) was -23.8%. For the same molecule, the “Hs18S ΔCT” value in series [2] (setting [5]) came to 0.21. In series [3], the cytotoxicity at 10 µM turned out to be 13.5%.
On to `C[C@]12CC[C@@H]3c4ccc(O)cc4CC[C@H]3[C@@H]1CC[C@@H]2O` [ESTRADIOL], for which, in series [1] (setting [4]), the inhibition at 10 µM is 22%. Also, the “Hs18S ΔCT” value in series [2] (human, 41 h, 10 μM) was -0.19. Besides, the cytotoxicity at 41 h, 10 µM in series [3] (human) was -13.8%.
`C=CCc1ccc(OC)cc1` [ESTRAGOLE]: the inhibition at 10 µM in series [1] (setting [4]) was determined as 99.6%. Moreover, in series [1], the inhibition at 3.3 µM stood at 15%. In addition, the “Hs18S ΔCT” value in series [2] (setting [5]) is given as -0.22. In series [3], the cytotoxicity at 10 µM is -16.6%.
As for `C[C@]12CC[C@@H]3c4ccc(O)cc4CC[C@H]3[C@@H]1C[C@@H](O)[C@@H]2O` [ESTRIOL], the inhibition at 10 µM in series [1] (setting [4]) amounted to 14.4%. In addition, in series [2] (human, 41 h, 10 μM), the “Hs18S ΔCT” value is reported as -0.12. The cytotoxicity at 41 h, 10 µM in series [3] (human) is -8.4%.
Take `C[C@]12CC[C@@H]3c4ccc(O)cc4CC[C@H]3[C@@H]1CCC2=O` [ESTRONE]: the inhibition at 10 µM in series [1] (setting [4]) was 28.1%. For the same molecule, in series [2] (human, 41 h, 10 μM), the “Hs18S ΔCT” value is -0.24. For the same molecule, the cytotoxicity at 41 h, 10 µM in series [3] (human) is -18.4%.
The matching figures for `COc1cc([C@@H]2c3cc4c(cc3[C@@H](O[C@@H]3O[C@@H]5CO[C@@H](C)O[C@H]5[C@H](O)[C@H]3O)[C@H]3COC(=O)[C@H]23)OCO4)cc(OC)c1O` [ETOPOSIDE]: 48.5%, 0.40 and 24.1%.
As for `CC12CCC(CC1)C(C)(C)O2` [EUCALYPTOL], in series [1] (setting [4]), the inhibition at 10 µM turned out to be 16.2%. Also, the “Hs18S ΔCT” value in series [2] (human, 41 h, 10 μM) is -0.22. Further, the cytotoxicity at 41 h, 10 µM in series [3] (human) is -16.4%.
As for `C=CCc1ccc(O)c(OC)c1` [EUGENOL], the inhibition at 10 µM in series [1] (setting [4]) worked out at 3.09%. The “Hs18S ΔCT” value in series [2] (human, 41 h, 10 μM) was -0.36. The cytotoxicity at 41 h, 10 µM in series [3] (human) was -28.5%.
Turning to `C=C(C)c1cc2cc(C(C)=O)c(O)cc2o1` [EUPARIN], in series [1] (setting [4]), the inhibition at 10 µM came out at 19%. Besides, in series [2] (setting [5]), the “Hs18S ΔCT” value was found to be 0.23. The cytotoxicity at 10 µM in series [3] was 14.6%.
For the molecule `CC(C)=CCC[C@@H](C)[C@@H]1CC[C@]2(C)C3=C(CC[C@@]12C)[C@@]1(C)CC[C@H](O)C(C)(C)[C@@H]1CC3` [EUPHOL], the inhibition at 10 µM in series [1] (setting [4]) was -2.84%. For the same molecule, in series [2] (human, 41 h, 10 μM), the “Hs18S ΔCT” value is recorded as -0.29. Also, the cytotoxicity at 41 h, 10 µM in series [3] (human) was -22.5%.
